Article PMC5218480 (PLoS ONE, 2017)

Tested on: MV-4-11 cells
Assay: Gene expression microarray analysis (Affymetrix PrimeView) and GSEA
Assay type: cell-based, human
Set-up: RFU PODN (11730768_x_at) / Fold change /veh PODN (11730768_x_at) / RFU LINC00158 (11744669_a_at) / Fold change /veh LINC00158 (11744669_a_at) / RFU DUSP10 (11751237_a_at) / Fold change /veh DUSP10 (11751237_a_at) / RFU ID3 (11757404_x_at) / Fold change /veh ID3 (11757404_x_at) / RFU PLEKHG5 (11737974_s_at) / Fold change /veh PLEKHG5 (11737974_s_at) / RFU LRRC4B (11730491_at) / Fold change /veh LRRC4B (11730491_at) / RFU GIMAP4 (11747438_a_at) / Fold change /veh GIMAP4 (11747438_a_at) / RFU KRT8 (11758183_x_at) / Fold change /veh KRT8 (11758183_x_at) / RFU CNN1 (11734310_a_at) / Fold change /veh CNN1 (11734310_a_at) / RFU VPS37D (11726825_at) / Fold change /veh VPS37D (11726825_at) / RFU C10orf10 (11716522_x_at) / Fold change /veh C10orf10 (11716522_x_at) / RFU KIR2DL2 /// KIR2DL4 /// KIR2DL5A /// KIR2DL5B /// KIR2DS1 /// KIR2DS2 /// KIR2DS3 /// KIR2DS4 /// KIR3DL3 /// KIR3DL3 /// KIR3DS1 (11738374_at) / Fold change /veh KIR2DL2 /// KIR2DL4 /// KIR2DL5A /// KIR2DL5B /// KIR2DS1 /// KIR2DS2 /// KIR2DS3 /// KIR2DS4 /// KIR3DL3 /// KIR3DL3 /// KIR3DS1 (11738374_at) / RFU C1QL1 (11718748_at) / Fold change /veh C1QL1 (11718748_at) / RFU TMPRSS4 (11747572_a_at) / Fold change /veh TMPRSS4 (11747572_a_at) / RFU HAMP (11756126_x_at) / Fold change /veh HAMP (11756126_x_at) / RFU RNFT2 (11725882_a_at) / Fold change /veh RNFT2 (11725882_a_at) / RFU NR4A2 (11747474_a_at) / Fold change /veh NR4A2 (11747474_a_at) / RFU ABCC12 (11746883_a_at) / Fold change /veh ABCC12 (11746883_a_at) / RFU TMEM136 (11760407_x_at) / Fold change /veh TMEM136 (11760407_x_at) / RFU CLDN22 /// WWC2 (11732394_at) / Fold change /veh CLDN22 /// WWC2 (11732394_at) / RFU HLA-DPB1 (11760878_x_at) / Fold change /veh HLA-DPB1 (11760878_x_at) / RFU SPINT1 (11716480_a_at) / Fold change /veh SPINT1 (11716480_a_at) / RFU GAP43 (11754022_s_at) / Fold change /veh GAP43 (11754022_s_at) / RFU A4GNT (11735810_at) / Fold change /veh A4GNT (11735810_at) / RFU PRB3 (11715151_x_at) / Fold change /veh PRB3 (11715151_x_at) / RFU TUBB4B (11761932_at) / Fold change /veh TUBB4B (11761932_at) / RFU CAPN14 (11732068_a_at) / Fold change /veh CAPN14 (11732068_a_at) / RFU TMCC2 (11721928_a_at) / Fold change /veh TMCC2 (11721928_a_at) / RFU IRGQ (11745062_a_at) / Fold change /veh IRGQ (11745062_a_at) / RFU FAM174B (11720279_a_at) / Fold change /veh FAM174B (11720279_a_at) / RFU TMPRSS4 (11748680_a_at) / Fold change /veh TMPRSS4 (11748680_a_at) / RFU FAM212B (11763350_a_at) / Fold change /veh FAM212B (11763350_a_at) / RFU PLEKHG5 (11743358_a_at) / Fold change /veh PLEKHG5 (11743358_a_at) / RFU ZSCAN30 (11745921_a_at) / Fold change /veh ZSCAN30 (11745921_a_at) / RFU CMKLR1 (11741424_a_at) / Fold change /veh CMKLR1 (11741424_a_at) / RFU LOC101060620 /// MAPK8IP1 (11723275_at) / Fold change /veh LOC101060620 /// MAPK8IP1 (11723275_at) / RFU SPTSSB (11747773_x_at) / Fold change /veh SPTSSB (11747773_x_at) / RFU PRSS12 (11739890_at) / Fold change /veh PRSS12 (11739890_at) / RFU BIN1 (11741810_x_at) / Fold change /veh BIN1 (11741810_x_at) / RFU WNT11 (11732464_a_at) / Fold change /veh WNT11 (11732464_a_at) / RFU C10orf10 (11716521_a_at) / Fold change /veh C10orf10 (11716521_a_at) / RFU C5orf56 (11738089_at) / Fold change /veh C5orf56 (11738089_at) / RFU CYB561 (11721691_x_at) / Fold change /veh CYB561 (11721691_x_at) / RFU ANKRD19P (11752326_a_at) / Fold change /veh ANKRD19P (11752326_a_at) / RFU OR2T12 /// OR2T33 /// OR2T8 (11738714_s_at) / Fold change /veh OR2T12 /// OR2T33 /// OR2T8 (11738714_s_at) / RFU VCAN (11748164_a_at) / Fold change /veh VCAN (11748164_a_at) / RFU JSRP1 (11732532_at) / Fold change /veh JSRP1 (11732532_at) / RFU KRTAP10-11 (11738290_x_at) / Fold change /veh KRTAP10-11 (11738290_x_at) / RFU MYO3A (11730013_a_at) / Fold change /veh MYO3A (11730013_a_at) / RFU EBF3 (11725865_a_at) / Fold change /veh EBF3 (11725865_a_at) / RFU CAMK2N1 (11719241_x_at) / Fold change /veh CAMK2N1 (11719241_x_at) / RFU C5orf56 (11738088_a_at) / Fold change /veh C5orf56 (11738088_a_at) / RFU OLFML3 (11715873_a_at) / Fold change /veh OLFML3 (11715873_a_at) / RFU LOC100653217 /// NTM (11731650_a_at) / Fold change /veh LOC100653217 /// NTM (11731650_a_at) / RFU MAPK11 (11762145_a_at) / Fold change /veh MAPK11 (11762145_a_at) / RFU FIZ1 (11724087_x_at) / Fold change /veh FIZ1 (11724087_x_at) / RFU OASL (11726364_x_at) / Fold change /veh OASL (11726364_x_at) / RFU SOX15 (11748057_x_at) / Fold change /veh SOX15 (11748057_x_at) / RFU CD79A (11719716_a_at) / Fold change /veh CD79A (11719716_a_at) / RFU HIST1H1D (11736915_at) / Fold change /veh HIST1H1D (11736915_at) / RFU CASKIN2 (11723855_a_at) / Fold change /veh CASKIN2 (11723855_a_at) / RFU LOC730098 (11760151_x_at) / Fold change /veh LOC730098 (11760151_x_at) / RFU OR4N2 (11742367_at) / Fold change /veh OR4N2 (11742367_at) / RFU PRRT2 (11749266_a_at) / Fold change /veh PRRT2 (11749266_a_at) / RFU SNX32 (11753110_a_at) / Fold change /veh SNX32 (11753110_a_at) / RFU CDHR5 (11726645_a_at) / Fold change /veh CDHR5 (11726645_a_at) / RFU RCAN1 (11760418_a_at) / Fold change /veh RCAN1 (11760418_a_at) / RFU FAM167A (11723789_a_at) / Fold change /veh FAM167A (11723789_a_at) / RFU FAM26E (11764081_at) / Fold change /veh FAM26E (11764081_at) / RFU ISYNA1 (11749810_s_at) / Fold change /veh ISYNA1 (11749810_s_at) / RFU ACY1 (11761880_at) / Fold change /veh ACY1 (11761880_at) / RFU 11764098_at / Fold change /veh 11764098_at / RFU SAMD14 (11745864_x_at) / Fold change /veh SAMD14 (11745864_x_at) / RFU NPB (11741838_a_at) / Fold change /veh NPB (11741838_a_at) / RFU TMPRSS6 (11731388_a_at) / Fold change /veh TMPRSS6 (11731388_a_at) / RFU KRTAP10-2 (11738614_at) / Fold change /veh KRTAP10-2 (11738614_at) / RFU ARHGAP8 /// PRR5-ARHGAP8 (11727945_x_at) / Fold change /veh ARHGAP8 /// PRR5-ARHGAP8 (11727945_x_at) / RFU KRTAP5-7 /// NADSYN1 (11734609_at) / Fold change /veh KRTAP5-7 /// NADSYN1 (11734609_at) / RFU RASL12 (11751679_a_at) / Fold change /veh RASL12 (11751679_a_at) / RFU CDKN2B (11736163_a_at) / Fold change /veh CDKN2B (11736163_a_at) / RFU PRF1 (11729649_at) / Fold change /veh PRF1 (11729649_at) / RFU, ZNF638 /// ZNF638-IT1 / Fold change vs veh, ZNF638 /// ZNF638-IT1 / RFU, PANK3 / Fold change vs veh, PANK3 / RFU, SH3YL1 / Fold change vs veh, SH3YL1 / RFU, ZEB2 / Fold change vs veh, ZEB2 / RFU, NRIP1 / Fold change vs veh, NRIP1 / RFU, PTTG1IP / Fold change vs veh, PTTG1IP / RFU, CAPN2 / Fold change vs veh, CAPN2 / RFU, MED14 / Fold change vs veh, MED14 / RFU, SNORA58 / Fold change vs veh, SNORA58 / RFU, C1orf63 / Fold change vs veh, C1orf63 / RFU, LRRFIP1 / Fold change vs veh, LRRFIP1 / RFU, NDUFAF7 / Fold change vs veh, NDUFAF7 / RFU, SLC12A2 / Fold change vs veh, SLC12A2 / RFU, IBTK / Fold change vs veh, IBTK / RFU, ESF1 / Fold change vs veh, ESF1 / Fold change vs veh, TMEM50B / RFU, TAOK1 / Fold change vs veh, TAOK1 / RFU, ACBD3 / Fold change vs veh, ACBD3 / RFU, TMA16 / Fold change vs veh, TMA16 / RFU, RWDD3 / Fold change vs veh, RWDD3 / RFU, BCAT1 / Fold change vs veh, BCAT1 / RFU, EDEM3 / Fold change vs veh, EDEM3 / RFU, TMEM33 / Fold change vs veh, TMEM33 / RFU, WDR75 / Fold change vs veh, WDR75 / RFU, AHCTF1 / Fold change vs veh, AHCTF1 / RFU, TFRC / Fold change vs veh, TFRC / RFU, ZDHHC17 / Fold change vs veh, ZDHHC17 / RFU, NOM1 / Fold change vs veh, NOM1 / RFU, ARL8B / Fold change vs veh, ARL8B / RFU, ZBTB11 / Fold change vs veh, ZBTB11 / RFU, TAMM41 / Fold change vs veh, TAMM41 / RFU, KIAA1704 /// LOC100996395 / Fold change vs veh, KIAA1704 /// LOC100996395 / RFU, ING1 / Fold change vs veh, ING1 / RFU, TRMT61B / Fold change vs veh, TRMT61B / RFU, FUBP3 / Fold change vs veh, FUBP3 / RFU, TP53 / Fold change vs veh, TP53 / RFU, TNKS2 / Fold change vs veh, TNKS2 / RFU, ZFP14 / Fold change vs veh, ZFP14 / RFU, ACTR2 / Fold change vs veh, ACTR2 / RFU, PPP3R1 / Fold change vs veh, PPP3R1 / RFU, PIK3R1 / Fold change vs veh, PIK3R1 / RFU, HNRNPA1 / Fold change vs veh, HNRNPA1 / RFU, RNF170 / Fold change vs veh, RNF170 / RFU, ZNF28 / Fold change vs veh, ZNF28 / RFU, RNGTT / Fold change vs veh, RNGTT / RFU, OGT / Fold change vs veh, OGT / RFU, BRD1 / Fold change vs veh, BRD1 / RFU, MARS / Fold change vs veh, MARS / RFU, ZNF655 / Fold change vs veh, ZNF655 / RFU, FAHD1 / Fold change vs veh, FAHD1 / RFU, BDP1 / Fold change vs veh, BDP1 / RFU, LRRCC1 / Fold change vs veh, LRRCC1 / RFU, ARID1A / Fold change vs veh, ARID1A / RFU, ZNF146 / Fold change vs veh, ZNF146 / RFU, ZNF330 / Fold change vs veh, ZNF330 / RFU, GPN3 / Fold change vs veh, GPN3 / RFU, C9orf123 / Fold change vs veh, C9orf123 / RFU, N4BP2L2 / Fold change vs veh, N4BP2L2 / RFU, ARFIP1 / Fold change vs veh, ARFIP1 / RFU, FAM179B / Fold change vs veh, FAM179B / RFU, BCL10 / Fold change vs veh, BCL10 / RFU, UHRF1BP1L / Fold change vs veh, UHRF1BP1L / RFU, BET1 / Fold change vs veh, BET1 / RFU, CNOT2 / Fold change vs veh, CNOT2 / RFU, ZNF268 / Fold change vs veh, ZNF268 / Fold change vs veh, ZNF507 / RFU, DGCR2 / Fold change vs veh, DGCR2 / RFU, WDSUB1 / Fold change vs veh, WDSUB1 / Fold change vs veh, HSP90B1 /// MIR3652 / RFU, ADSS / Fold change vs veh, ADSS / RFU, GK / Fold change vs veh, GK / RFU, ZNF148 / Fold change vs veh, ZNF148 / RFU, TAF9 / Fold change vs veh, TAF9 / RFU, SLC1A5 / Fold change vs veh, SLC1A5 / RFU, SLMO2 / Fold change vs veh, SLMO2 / RFU, ABCC4 / Fold change vs veh, ABCC4 / RFU, LOC101060439 /// RAP1B / Fold change vs veh, LOC101060439 /// RAP1B / RFU, RFX7 / Fold change vs veh, RFX7 / RFU, GTPBP10 / Fold change vs veh, GTPBP10 / RFU, CNEP1R1 / Fold change vs veh, CNEP1R1 / RFU, BIVM-ERCC5 /// ERCC5 / Fold change vs veh, BIVM-ERCC5 /// ERCC5 / RFU, ILF3 / Fold change vs veh, ILF3 / RFU 11762660_at / Fold change /veh 11762660_at / RFU VCAN (11757783_s_at) / Fold change /veh VCAN (11757783_s_at) / RFU DDX43 (11728927_at) / Fold change /veh DDX43 (11728927_at) / RFU KRT8 (11758188_x_at) / Fold change /veh KRT8 (11758188_x_at) / RFU NKD1 (11759106_at) / Fold change /veh NKD1 (11759106_at) / RFU SRD5A1 (11742802_a_at) / Fold change /veh SRD5A1 (11742802_a_at) / RFU TPSAB1 /// TPSB2 (11721975_s_at) / Fold change /veh TPSAB1 /// TPSB2 (11721975_s_at) / RFU GSTM3 (11746129_a_at) / Fold change /veh GSTM3 (11746129_a_at) / RFU IL23R (11737362_x_at) / Fold change /veh IL23R (11737362_x_at) / RFU TMEM51 (11727254_a_at) / Fold change /veh TMEM51 (11727254_a_at) / RFU PIWIL2 (11732686_x_at) / Fold change /veh PIWIL2 (11732686_x_at) / RFU ORM1 (11744905_x_at) / Fold change /veh ORM1 (11744905_x_at) / RFU CCDC152 (11743942_at) / Fold change /veh CCDC152 (11743942_at) / RFU ECM1 (11717891_a_at) / Fold change /veh ECM1 (11717891_a_at) / RFU IL23R (11748794_a_at) / Fold change /veh IL23R (11748794_a_at) / RFU TNFAIP8L3 (11732012_x_at) / Fold change /veh TNFAIP8L3 (11732012_x_at) / RFU MBOAT4 (11741988_at) / Fold change /veh MBOAT4 (11741988_at) / RFU 11764193_at / Fold change /veh 11764193_at / RFU TMEM53 (11763286_at) / Fold change /veh TMEM53 (11763286_at) / RFU MAGEB2 (11727129_at) / Fold change /veh MAGEB2 (11727129_at) / RFU TMEM200A (11744735_a_at) / Fold change /veh TMEM200A (11744735_a_at) / RFU CCDC152 (11751479_a_at) / Fold change /veh CCDC152 (11751479_a_at) / RFU FAM211A (11726209_a_at) / Fold change /veh FAM211A (11726209_a_at) / RFU RGS16 (11746705_a_at) / Fold change /veh RGS16 (11746705_a_at) / RFU VCAN (11755009_s_at) / Fold change /veh VCAN (11755009_s_at) / RFU RHOB (11743442_s_at) / Fold change /veh RHOB (11743442_s_at) / RFU RGS16 (11720943_a_at) / Fold change /veh RGS16 (11720943_a_at) / RFU RGS16 (11720944_at) / Fold change /veh RGS16 (11720944_at) / RFU, VPS4B / Fold change vs veh, VPS4B / RFU, CREB1 / Fold change vs veh, CREB1 / RFU, DNAJC13 / Fold change vs veh, DNAJC13 / RFU, GNAQ / Fold change vs veh, GNAQ / RFU, CDK5R1 / Fold change vs veh, CDK5R1 / RFU, ZRANB3 / Fold change vs veh, ZRANB3 / RFU, CUL4A / Fold change vs veh, CUL4A / RFU, CCNY / Fold change vs veh, CCNY / RFU, UFL1 / Fold change vs veh, UFL1 / RFU, COG3 / Fold change vs veh, COG3 / RFU, DIAPH2 / Fold change vs veh, DIAPH2 / RFU, SKA2 / Fold change vs veh, SKA2 / RFU, AFF3 / Fold change vs veh, AFF3 / RFU, LMF1 / Fold change vs veh, LMF1 / RFU, IPO11 / Fold change vs veh, IPO11 / RFU, DFFB / Fold change vs veh, DFFB / RFU, FOXP1 / Fold change vs veh, FOXP1 / RFU, CARD8 / Fold change vs veh, CARD8 / RFU, STRN3 / Fold change vs veh, STRN3 / RFU, ADK / Fold change vs veh, ADK / RFU, RASSF2 / Fold change vs veh, RASSF2 / RFU, WIPF1 / Fold change vs veh, WIPF1 / RFU, LARP1B / Fold change vs veh, LARP1B / RFU, RASA1 / Fold change vs veh, RASA1 / RFU, RB1 / Fold change vs veh, RB1 / RFU, PPFIA1 / Fold change vs veh, PPFIA1 / RFU, MAT2A / Fold change vs veh, MAT2A / RFU, CCT5 / Fold change vs veh, CCT5 / RFU, WDR92 / Fold change vs veh, WDR92 / RFU, CUX1 / Fold change vs veh, CUX1 / RFU, TTC7A / Fold change vs veh, TTC7A / RFU, TMEM135 / Fold change vs veh, TMEM135 / RFU, DEPTOR / Fold change vs veh, DEPTOR / RFU, CPM / Fold change vs veh, CPM / RFU, DNAJB6 / Fold change vs veh, DNAJB6 / RFU, CACNA2D3 / Fold change vs veh, CACNA2D3 / RFU, DTX4 / Fold change vs veh, DTX4 / RFU, TFCP2 / Fold change vs veh, TFCP2 / RFU, GMCL1 /// GMCL1P1 / Fold change vs veh, GMCL1 /// GMCL1P1 / RFU, AEBP2 / Fold change vs veh, AEBP2 / RFU, SNHG1 /// SNORD22 /// SNORD25 /// SNORD26 /// SNORD27 /// SNORD28 /// SNORD29 /// SNORD31 / Fold change vs veh, SNHG1 /// SNORD22 /// SNORD25 /// SNORD26 /// SNORD27 /// SNORD28 /// SNORD29 /// SNORD31 / Fold change (Aza/veh), C12orf56 (ProbeSet 11735607_a_at) / Fold change (ACY-1035/veh), C12orf56 (ProbeSet 11735607_a_at) / Fold change (Aza/veh), FGFR1OP (ProbeSet 11751329_s_at) / Fold change (ACY-1035/veh), FGFR1OP (ProbeSet 11751329_s_at) / Fold change (Aza/veh), VPS36 (ProbeSet 11739960_a_at) / Fold change (ACY-1035/veh), VPS36 (ProbeSet 11739960_a_at) / RFU SYPL1 (11715823_x_at) / Fold change /veh SYPL1 (11715823_x_at) / RFU IGFBP7 (11715501_s_at) / Fold change /veh IGFBP7 (11715501_s_at) / RFU REEP3 (11722064_at) / Fold change /veh REEP3 (11722064_at) / RFU IGLL1 (11728026_x_at) / Fold change /veh IGLL1 (11728026_x_at): dose or concentration left out as unconfirmed
Conditions: MV-4-11 cells, 48 hours

`Nc1ncn([C@@H]2O[C@H](CO)[C@@H](O)[C@H]2O)c(=O)n1` [azacitidine] was tested, and the “Fold change /veh C10orf10 (11716521_a_at)” value was 1.13.
